For this experiment, the system named is CHO cell line (GAA LEC clone R3.3) expressing rh-GAA. Put plainly: Phosphorylation efficiency of rh-GAA from cultures containing mannosidase inhibitors ([32P] incorporation by GlcNAc phosphotransferase). Particulars: increasing amounts of inhibitor alone vs no mannosidase inhibitors (FIG. 1). In kind it is cell-based, Chinese Hamster. The procedure: To determine whether mannosidase inhibitors can increase phosphorylation efficiency of recombinant human acid alpha glucosidase (rh-GAA), a CHO cell line (GAA LEC clone R3.3) expressing rh-GAA was grown in various conditions that contained different amounts of the following mannosidase the inhibitors: Kifunensin; Deoxymannojirimycin (DMJ); or combinations of both inhibitors. Conditioned media from each inhibitor condition containing 6 μg of GAA (based on GAA activity assay) was then incubated with purified bovine GlcNAc phosphotransferase (Pt'ase) and [^32P]UDP-GlcNAc. Subsequently, each phosphorylation reaction was loaded onto a concanavalin A-sepharose column to capture glycoproteins, e.g., rh-GAA. The concanavalin A-sepharose was washed and the resin was counted in a liquid scintillation counter to measure the ^32P incorporation, i.e., the extent of phosphorylation on rh-GAA. The results are summarized in Table 1 below and FIGS. 1 and 2.

In the case of `OC[C@H]1NC[C@@H](O)[C@@H](O)[C@@H]1O` [DMJ only, deoxymannojirimycin], the “effect on the phosphorylation reaction of rh-GAA (in words)” value is on record as “greatly enhance the phosphorylation reaction”.

Turning to `O=C1N[C@@H]2[C@@H](O)[C@@H](O)[C@H](O)[C@@H](CO)N2C1=O` [Kifunensin only, kifunensine], the “effect on the phosphorylation reaction of rh-GAA (in words)” value is recorded as “greatly enhance the phosphorylation reaction”.

The values are drawn from patent US20030124652A1, “Methods of producing high mannose glycoproteins in complex carbohydrate deficient cells” (NOVAZYME PHARMACEUTICALS, INC., priority 2001, published 2003).
